We go through two molecules from patent publication US20090081758A1, “Chimeric Cytochrome P450 Proteins and Methods of Use” (THE REGENTS OF THE UNIVERSITY OF MICHIGAN, priority 2007, published 2009).

In test [1] the target is PikC-RhFRED. In words: Spectral substrate binding assay, PikC-RhFRED. Set-up: species or system Streptomyces venezuelae. To be noted: Type I difference spectra, 1 μM P450, room temperature; read-out: Kd (dissociation constant). How it is done:
(§1) Spectral substrate binding assays were performed using a UV-visible spectrophotometer 300 Bio (Cary) at room temperature by titrating 30 mM substrate DMSO solution (blank DMSO for reference group) into 1 ml of 1 μM P450 sample in 1 μl aliquots, leading to substrate concentration ranging from 30 to 360 μM. The series of Type I difference spectra were used to deduce ΔA (Apeak(389)−Atrough(424)). Then, the data were fit to Michaelis-Menten equation to obtain the dissociation constant Kd. As mentioned above, one benefit of the fusion protein arrangement is the facility of the covalent linkage to stabilize productive interactions between the P450 and redox partner, thus enhancing electron transfer efficiency. […] To test whether this also applies to PikC-RhFRED, we first determined the substrate binding affinity of YC-17 and narbomycin toward both PikC and PikC-RhFRED.

For a further test, the target named is wt-PikC (Streptomyces venezuelae, UniProt O87605). Description: Spectral substrate binding assay, wt-PikC. To be noted: Type I difference spectra, 1 μM P450, room temperature; read-out: Kd (dissociation constant). How it is done:
as §1

Test [2] relates to PikC-RhFRED. In words: Steady-state kinetics, substrate consumption by HPLC, PikC-RhFRED. It is filed as biochemical, Streptomyces venezuelae. To be noted: kcat/Km of PikC-RhFRED relative to wt-PikC with Fdr and Fdx. How it is done: Subsequently, the kinetic parameters of PikC-RhFRED were compared with those of the PikC-Fdr-Fdx three component system. […] Moreover, the solubility limitation (less than 500 μM) of macrolides in aqueous solution prevented us from deducing the K, value. Therefore, the apparent specificity constants (kcat/Km) were determined by fitting the low-concentration data to the linear region of a Michaelis-Menten curve. […] In contrast, the specificity constants of wt-PikC partnered by Fdr and Fdx were 0.24 μM^−1·min^−1 for YC-17 and 0.31 μM^−1·min^−1 for narbomycin. It is evident that the fusion enhanced the catalytic activity approximately 4 fold for both YC-17 and narbomycin. […] The presumed de-coupling between electron transfer and hydroxylation may account for this difference.
The standard reaction contains 100 nM of PikC-RhFRED (or 150 nM of wt-PikC with 3.5 μM spinach ferredoxin and 0.1 U/ml spinach ferredoxin-NADP^+ reductase), 20˜250 μM substrate in 200 μl of desalting buffer (50 mM NaH2PO4, pH 7.3, 1 mM EDTA, 0.2 mM DTE, 10% glycerol). After pre-incubation at 30° C. for 5 min, the reaction was initiated by adding 1 μl of 50 mM NADPH and 50 μl aliquots were taken at 0 s, 20 s, and 40 s (or Os, 30 s, and 60 s when substrate concentration greater than 100 μM) to thoroughly mix with 2×100 μl of chloroform. […]

Sequence of wt-PikC (O87605 whole entry): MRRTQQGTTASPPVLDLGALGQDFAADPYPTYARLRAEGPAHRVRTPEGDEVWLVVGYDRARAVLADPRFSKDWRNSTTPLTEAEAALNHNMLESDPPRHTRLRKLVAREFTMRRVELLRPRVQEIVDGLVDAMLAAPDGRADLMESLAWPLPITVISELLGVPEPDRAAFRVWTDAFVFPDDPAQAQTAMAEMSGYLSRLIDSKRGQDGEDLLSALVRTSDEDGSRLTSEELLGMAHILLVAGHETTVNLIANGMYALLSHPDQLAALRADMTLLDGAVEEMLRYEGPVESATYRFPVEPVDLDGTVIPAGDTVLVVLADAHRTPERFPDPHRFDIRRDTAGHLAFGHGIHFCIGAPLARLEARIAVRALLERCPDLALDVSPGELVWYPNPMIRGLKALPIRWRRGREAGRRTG

Consider `CC[C@H]1OC(=O)[C@H](C)C(=O)[C@H](C)[C@@H](O[C@@H]2O[C@H](C)C[C@H](N(C)C)[C@H]2O)[C@@H](C)C[C@@H](C)C(=O)/C=C/[C@H]1C` [narbomycin], for which the Kd at PikC-RhFRED [1] stood at 215 ± 4.2 µM; at wt-PikC, 288 ± 7.1 µM. In addition, the “enhancement of catalytic activity by fusion (PikC-RhFRED vs wt-PikC)” value in the test on PikC-RhFRED [2] was “approximately 4 fold”.
For the molecule `CC[C@H]1OC(=O)[C@H](C)[C@@H](O[C@@H]2O[C@H](C)C[C@H](N(C)C)[C@H]2O)[C@@H](C)C[C@@H](C)C(=O)/C=C/[C@H]1C` [YC-17], the Kd came out at 92.6 ± 0.5 µM on PikC-RhFRED [1] and 113 ± 1.9 µM on wt-PikC. The “enhancement of catalytic activity by fusion (PikC-RhFRED vs wt-PikC)” value with PikC-RhFRED [2] is “approximately 4 fold”.
